Measurements taken from patent US8895568B2, “Compositions comprising substituted pteridines as agrochemicals” (Dow AgroSciences LLC, priority 2009, dated 2014).
Like-named read-outs stand apart in the source and are kept apart here.

Legend:
Assay type in all cases: in vivo
Colletotricum lagenarium = assay: Cucumber Anthracnose (COLLLA), foliar spray, percent disease control
[1] = tested on: Pseudoperonospora cubensis; assay: Cucumber Downy Mildew (PSPECU), foliar spray, percent disease control; conditions: read-out: PSPECU percent control
Cochliobolus sativus = assay: Spot Blotch of Wheat (COCHSA), foliar spray, percent disease control; conditions: Bipolaris sorokiniana, read-out: COCHSA percent control
[2] = tested on: DROSME, AEDSAE, LAPHEG, or HELIVI; assay: Insecticidal activity, active if any of DROSME, AEDSAE, LAPHEG or HELIVI was controlled at 80% or more; conditions: read-out: >80% mortality on any insect species @ 4000 ppm

| SMILES | pest or weed control at 200 µg/mL (Colletotricum lagenarium; foliar) [%] | pest or weed control at 200 µg/mL ([1]; foliar) [%] | pest or weed control at 200 µg/mL (Cochliobolus sativus; foliar) [%] | pest or weed control at 4000 ppm [2] [%] | pest or weed control at 200 µg/mL (Colletotricum lagenarium; foliar spray) [%] | pest or weed control at 200 µg/mL ([1]; foliar spray) [%] | pest or weed control at 200 µg/mL (Cochliobolus sativus; foliar spray) [%] |
| --- | --- | --- | --- | --- | --- | --- | --- |
| FC(F)(F)c1cc(Cl)nc(Oc2ccc(CCNc3ncnc4nccnc34)cc2)c1 [Compound 90, {2-[4-(6-chloro-4-trifluoromethylpyridin-2-yloxy)-phenyl]-ethyl}-pteridin-4-yl-amine] | 0 to 49 | 80 to 100 | 0 to 49 | > 80 |  |  |  |
| CCCOc1cc(CCNc2ncnc3nccnc23)ccc1Oc1cc(C(C)(F)F)ccn1 [Compound 199] | 0 to 49 | 80 to 100 | 0 to 49 | > 80 |  |  |  |
| Brc1ccc(Oc2ccc(CCNc3ncnc4nccnc34)cc2)cn1 [Compound 110] | 0 to 49 | 80 to 100 | 0 to 49 | > 80 |  |  |  |
| Cc1cccnc1Oc1ccc(CCNc2ncnc3nccnc23)cc1 [Compound 43] | 0 to 49 | 80 to 100 | 0 to 49 | > 80 |  |  |  |
| CC(Nc1ncnc2nccnc12)c1ccc(Oc2nccc(C(F)(F)F)n2)cc1 (stereo not shown) [Compound 68] | 0 to 49 | 80 to 100 | 0 to 49 | > 80 |  |  |  |
| CC(C)OC(=O)c1cnc(Oc2ccc(CCNc3ncnc4nccnc34)cc2)c(Cl)c1 [Compound 164] | 0 to 49 | 0 to 49 | 0 to 49 | > 80 |  |  |  |
| c1ccc(COc2ccc(CCOc3ccc(CCNc4ncnc5nccnc45)cc3)cc2)cc1 [Compound 140, (2-{4-[2-(4-Benzyloxy-phenyl)-ethoxy]-phenyl}-ethyl)-pteridin-4-yl-amine] | 50 to 79 | 80 to 100 | 0 to 49 | > 80 |  |  |  |
| COC(=O)c1cnc(Oc2ccc(CCNc3ncnc4nccnc34)cc2)cc1C(F)(F)F [Compound 202] |  |  |  | > 80 | 0 to 49 | 80 to 100 | 0 to 49 |
| Cc1cnc(Oc2ccc(CCNc3ncnc4nccnc34)cc2)s1 [Compound 66] | 80 to 100 | 80 to 100 | 50 to 79 | > 80 |  |  |  |
| CC1=CSc2cc(CCNc3ncnc4nccnc34)ccc2O1 [Compound 231] |  |  |  | > 80 | 0 to 49 | 0 to 49 | 0 to 49 |
| c1cnc(Oc2ccc(CCNc3ncnc4nccnc34)cc2)cn1 [Compound 28] | 0 to 49 | 80 to 100 | 0 to 49 | > 80 |  |  |  |
| Fc1cccc(Oc2ccc(CCNc3ncnc4nccnc34)cc2)c1C(F)(F)F [Compound 216] |  |  |  | > 80 | 0 to 49 | 80 to 100 | 0 to 49 |
| Cc1nc(NCCc2ccc(Oc3ncc(C(F)(F)F)cc3F)cc2)c2nc(C)c(C)nc2n1 [Compound 214] |  |  |  | > 80 | 0 to 49 | 0 to 49 | 0 to 49 |
| FC(F)(F)c1cccnc1Oc1ccc(CCNc2ncnc3nccnc23)cc1 [Compound 60] | 50 to 79 | 80 to 100 | 0 to 49 | > 80 |  |  |  |
| c1ccc(-c2nnsc2Oc2ccc(CCNc3ncnc4nccnc34)cc2)cc1 [Compound 58] | 0 to 49 | 50 to 79 | 0 to 49 | > 80 |  |  |  |
| Cc1c(CCNc2ncnc3nccnc23)ccc(Oc2cc(C(F)(F)F)ccn2)c1C [Compound 145] | 50 to 79 | 80 to 100 | 0 to 49 | > 80 |  |  |  |
| Fc1nc(Oc2ccc(CCNc3ncnc4nccnc34)cc2)c(F)c(C(F)(F)F)c1F [Compound 138, Pteridin-4-yl-{2-[4-(3,5,6-trifluoro-4-trifluoromethyl-pyridin-2-yloxy)-phenyl]-ethyl}-amine] | 80 to 100 | 80 to 100 | 0 to 49 | > 80 |  |  |  |
| Cc1nc2ncnc(NCCc3ccc(Oc4ncccc4C(F)(F)F)cc3)c2nc1C [Compound 200] |  |  |  | > 80 | 0 to 49 | 0 to 49 | 0 to 49 |
| Cc1cnc2ncnc(NCCc3ccc(Oc4ccc(C#N)cn4)cc3)c2n1 [Compound 52] | 0 to 49 | 80 to 100 | 0 to 49 | > 80 |  |  |  |
